# Results from PMC11239005, “Preclinical studies of RA475, a guanidine-substituted spirocyclic candidate RPN13/ADRM1 inhibitor for treatment of ovarian cancer” (PLOS ONE, 2024).
# Tests used:
# [1] = tested on: 4UbFL in HCC1806 cells; test: 4UbFL reporter assay, HCC1806; assay type: cell-based; conditions: HCC1806 stably expressing 4UbFL, 4 h
# Protocol: Sub-confluent cultures of cells were transfected with 4UbFL plasmid using TransIT 2020 reagent (Mirus Bio). Cells were seeded at 10,000 cells/well in 96-well plates 48 h post transfection, and incubated with compounds or vehicle (DMSO) at the doses and for the times indicated. Luciferase activity in cell lysate was determined with a luciferase assay kit (Promega) according to the manufacturer’s instructions. Bioluminescence was measured using a Glomax Multidetection system (Promega).
# Fig 3 Impact of RA475 on proteasome function. […] Actin was used as loading control. […] After a 4 h incubation, the cells were lysed and the luciferase activity in each cell lysate was determined with a luciferase assay kit (Promega) according to the manufacturer’s instructions. Bioluminescence was measured by using a luminometer (Glomax Multidetection system, Promega) E) A patch was shaved of hair on one leg of CD-1 mice, and 10 μg 4UbFL plasmid in 20 μL of PBS was injected into the quadriceps femoralis muscle followed immediately by injection of the 2 Needle Array to 5 mm depth encompassing the injection site and square wave electroporation (ElectroSquarePorator 833, BTX-2 Needle array 5mm gap, Harvard apparatus) delivered as eight pulses at 106V for 20 ms with 200 ms intervals. […] Equally sized areas were analyzed using Living Image 2.20 software. […]
# [2] = Stability in murine plasma; assay type: in vitro ADME, mouse; conditions: 10 μM, 1 h at 37°C
# Protocol: (§1) Human and mouse liver microsomes and NADPH regenerating system solutions were purchased from Corning Life Sciences (Tewsbury, MA). Human and mouse K2EDTA-treated plasma was purchased from BioIVT (Westbury, NY). Metabolic studies in liver microsomes (0.125 mg/mL) were conducted in 1x PBS (pH 7.4), NADPH-generating system, and 10 μM RA475 in a final volume of 250 μL. An incubation mixture with or without NADPH-generating system, as well as a neat solution prepared without microsomes and NADPH-generating system was used. RA475 was added at the same concentration level into human and mouse EDTA plasma. All reactions were initiated with the addition of RA475. Incubations were performed in glass tubes maintained at 37°C in a shaker bath. At 0, 30, and 60 min, 10 μL samples were withdrawn from the reaction mixture, and 0.5 mL of acetonitrile containing internal standard was added to each. Samples were vortex-mixed and subjected to centrifugation for 5 min at 1430 x g. A 10 μL aliquot of the supernatant was injected onto the LC-MS/MS instrument for qualitative analysis using a temperature-controlled autosampling device operating at 5°C (See Pharmacokinetic section).
# [3] = Stability in human liver microsomes; assay type: in vitro ADME; conditions: with or without NADPH, over 1 h
# Protocol: as §1
smiles,measurement,setting,value
"Cl.Cl.N#Cc1ccc(/C=C2/C(=O)/C(=C/c3ccc(C#N)cc3)C23CCN(C(=N)N)CC3)cc1 [RA475, 1,3-bis((E)-4-cyanobenzylidene)-2-oxo-7-azaspiro[3.5]nonane-7-carboximidamide dihydrochloride]",4UbFL bioluminescence signal,[1],dose dependent increases in bioluminescence signal
same,stability in plasma,[2],did not degrade
same,degradation in liver microsomes,[3],< 10%
